Where two headings read alike, the source gives them in different places.

For data set [1] the following is noted: for elimination half-life: metabolite in plasma after iv cocaine, unaffected by donepezil treatment.
The nature of data set [2]: Cardiovascular response. The format is in vivo, human.
Data set [3] concerns rats. The following applies: cited from earlier work.
Data set [4] relates to rodent. The following applies: rodent studies, acute; cited from earlier work.
Data set [5] has as its system rats. The following applies: cited from earlier work. This is another data set of the same source.
Where [6] appears, read: rat model of ischemic heart disease.

As for `CN1[C@H]2CC[C@@H]1[C@@H](C(=O)O)[C@@H](OC(=O)c1ccccc1)C2` [Benzoylecgonine, benzoylecgonine], the elimination half-life result in data set [1] is recorded as “approximately six hours”.
Regarding `COC(=O)[C@H]1[C@@H](OC(=O)c2ccccc2)C[C@@H]2CC[C@H]1N2C` [Cocaine, cocaine], the “change in systolic blood pressure” value in data set [2] (iv cocaine 0.18 and 0.36 mg/kg, most pronounced over the initial 30 minutes) is recorded as “dose-related increases”. Further, the Tmax in data set [1] (human, in vivo, iv, 0.36 mg/kg) is 10 min.
`COc1cc2c(cc1OC)C(=O)C(CC1CCN(Cc3ccccc3)CC1)C2` (centres unmarked) [Donepezil, donepezil]: the “effect on increases in blood pressure” value in data set [2] (oral donepezil 5 mg daily, high-dose cocaine (0.36 mg/kg iv)) is reported as “not affected”. Further, the “effect on diastolic blood pressure and heart rate after cocaine” value in data set [2] (oral donepezil 5 mg daily, iv cocaine, data not shown) is “unaffected”. Moreover, the “effect on peak values of blood pressure and heart rate” value in data set [2] (oral donepezil 5 mg daily, iv placebo or cocaine 0.18 and 0.36 mg/kg) is reported as “did not modify peak values”. Moreover, the “effect on drug-induced elevations of systolic blood pressure” value in data set [2] (oral donepezil 5 mg daily, low-dose cocaine (0.18 mg/kg iv), p < 0.001) is “attenuated”. For the same compound, in data set [3] (setting [6]), the blood pressure entry is recorded as “without affecting blood pressure” and the heart rate entry is “decreased heart rate”. Further, the “heart failure and survival” value in data set [3] (rat, following coronary artery ligation) is “prevent heart failure and improve survival”. The cocaine self-administration entry in data set [4] was “attenuate cocaine self-administration”.
Take `COC(=O)[C@@H]1[C@H]2CC[C@@H](C[C@@H]1O)N2C` [Ecgonine Methyl Ester, ecgonine methyl ester]: the elimination half-life result in data set [1] was “approximately five hours”.
Regarding `CNC(=O)Oc1ccc2c(c1)[C@]1(C)CCN(C)[C@@H]1N2C` [physostigmine], the cocaine-induced lethality result in data set [5] (high doses of physostigmine) is recorded as “increased”; in data set [5] (low doses of physostigmine) it was “decreased”.

These data come from article PMC4967259 (The American journal on addictions / American Academy of …, 2016).
